Measured values reported in ChEMBL document CHEMBL1153531, “1- or 3-(3-Amino-2-hydroxy-1-phenyl propyl)-1,3-dihydro-2H-benzimidazol-2-ones: potent, selective, and orally efficacious norepinephrine reuptake inhibitors” (J Med Chem, 2009).
Calls of active or inactive are those of the source. The calls are words filed in the database; no cut-off is given here.

Experiments:
[1] = biological target: Sodium-dependent dopamine transporter (Homo sapiens) (UniProt Q01959); test: Inhibition of [3H]WIN-35428 binding to human recombinant DAT expressed in CHO cells at 1 uM by scintillation counting; format: cell-based
[2] = biological target: T1, Sodium-dependent noradrenaline transporter (Homo sapiens, UniProt P23975)
[3] = biological target: Sodium-dependent dopamine transporter (Homo sapiens) (UniProt Q01959); test: Inhibition of [3H]WIN-35428 binding to human recombinant DAT expressed in CHO cells by scintillation counting; format: cell-based
[4] = biological target: Sodium-dependent dopamine transporter (Homo sapiens) (UniProt Q01959); test: Inhibition of [3H]WIN-35428 binding to human recombinant DAT expressed in CHO cells at 10 uM by scintillation counting; format: cell-based
[5] = biological target: Sodium-dependent serotonin transporter (Homo sapiens) (UniProt P31645); test: Inhibition of [3H]hydroxytryptamine creatinine sulfate uptake at human SERT expressed in human JAR cells at 1 uM; format: cell-based
[6] = Oral bioavailability in Sprague-Dawley rat at 10 mg/kg; format: ADME, organism-based; details: in vivo
[7] = system: Rattus norvegicus; test: Effect on temperature homeostasis in telemetric ovariectomy-induced thermoregulatory dysfunction Sprague-Dawley rat model assessed as maximum reduction in tail skin temperature at 3 mg/kg, po relative to baseline; format: functional
[8] = system: Rattus norvegicus; test: Effect on temperature homeostasis in telemetric ovariectomy-induced thermoregulatory dysfunction Sprague-Dawley rat model assessed as mean reduction in tail skin temperature at 3 mg/kg, po relative to baseline; format: functional
[9] = AUC (0 to infinity) in Sprague-Dawley rat at 10 mg/kg, po; format: ADME, organism-based; design: time infinity, dose 10 mg/kg, route oral; details: plasma
[10] = Tmax in Sprague-Dawley rat at 10 mg/kg, po; format: ADME, organism-based; design: dose 10 mg/kg, route oral; details: in vivo
[11] = biological target: T1, Sodium-dependent noradrenaline transporter; test: biochemical
[12] = Plasma clearance in Sprague-Dawley rat at 5 mg/kg, iv; format: ADME, organism-based; design: dose 5 mg/kg, route intravenous
[13] = Terminal half life in Sprague-Dawley rat at 10 mg/kg, po; format: ADME, organism-based; design: dose 10 mg/kg, route oral; details: in vivo, read-out: beta t1/2 (converted)
[14] = Cmax in Sprague-Dawley rat 10 mg/kg, po within 2 hrs; format: ADME, organism-based; design: dose 10 mg/kg, route oral; details: in vivo
[15] = system: Rattus norvegicus; test: Effect on temperature homeostasis in telemetric ovariectomy-induced thermoregulatory dysfunction Sprague-Dawley rat model assessed as duration of tail skin temperature reduction at 3 mg/kg, po; format: functional
[16] = AUC (0 to infinity) in Sprague-Dawley rat at 5 mg/kg, iv; format: ADME, organism-based; design: time infinity, dose 5 mg/kg, route intravenous; details: plasma
[17] = Terminal half life in Sprague-Dawley rat at 5 mg/kg, iv; format: ADME, organism-based; design: dose 5 mg/kg, route intravenous; details: in vivo, read-out: beta t1/2 (converted)
[18] = species: Homo sapiens; test: Selectivity […] human SERT to IC50 for human NET
[19] = system: CHO; test: Selectivity for human NET expressed in MDCK-Net6 cells over human DAT expressed in CHO cells; format: cell-based
[20] = system: JAR; test: Selectivity for human NET expressed in MDCK-Net6 cells over human SERT expressed in human JAR cells; format: cell-based
[21] = biological target: Sodium-dependent serotonin transporter (Homo sapiens) (UniProt P31645); details: JAR
[22] = system: Rattus norvegicus; test: Analgesic activity in Sprague-Dawley rat acute analgesia model assessed as increase in nocifensive latency at 10 mg/kg, po after 5 hrs by hot plate assay; format: functional, organism-based; design: dose 10 mg/kg
[23] = system: Rattus norvegicus; test: Analgesic activity in Sprague-Dawley rat acute analgesia model assessed as increase nocifensive latency at 10 mg/kg, po after 1 hr by hot plate assay; format: functional, organism-based; design: dose 10 mg/kg
[24] = system: Rattus norvegicus; test: Analgesic activity in Sprague-Dawley rat acute analgesia model assessed as increase in nocifensive latency at 10 mg/kg, po after 3 hrs by hot plate assay; format: functional, organism-based; design: dose 10 mg/kg
[25] = system: Rattus norvegicus; test: Antihyperalgesic in po dosed Sprague-Dawley rat spinal nerve ligation model of neuropathic pain assessed as complete hind paw withdrawal after 3 to 4 weeks post surgery by paw pressure technique analysis; format: functional, organism-based

T1 sequence (P23975 whole entry): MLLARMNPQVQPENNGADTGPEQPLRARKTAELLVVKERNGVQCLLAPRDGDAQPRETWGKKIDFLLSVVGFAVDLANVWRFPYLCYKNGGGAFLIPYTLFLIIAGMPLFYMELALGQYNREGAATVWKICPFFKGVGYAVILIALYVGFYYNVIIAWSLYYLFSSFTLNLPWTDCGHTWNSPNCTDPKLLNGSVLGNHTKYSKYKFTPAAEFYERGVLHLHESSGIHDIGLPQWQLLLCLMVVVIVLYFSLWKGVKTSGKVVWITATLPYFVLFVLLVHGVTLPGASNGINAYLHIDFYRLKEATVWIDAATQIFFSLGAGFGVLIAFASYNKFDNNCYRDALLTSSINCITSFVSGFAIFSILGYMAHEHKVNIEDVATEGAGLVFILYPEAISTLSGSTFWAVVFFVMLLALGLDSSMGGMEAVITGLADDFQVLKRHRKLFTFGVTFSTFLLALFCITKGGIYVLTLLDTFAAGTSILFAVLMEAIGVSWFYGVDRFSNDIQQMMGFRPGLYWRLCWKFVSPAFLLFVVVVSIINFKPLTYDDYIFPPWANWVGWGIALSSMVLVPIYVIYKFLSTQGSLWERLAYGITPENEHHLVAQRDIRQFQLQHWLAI
Chain of Sodium-dependent serotonin transporter (Homo sapiens) (P31645 whole entry, looked up): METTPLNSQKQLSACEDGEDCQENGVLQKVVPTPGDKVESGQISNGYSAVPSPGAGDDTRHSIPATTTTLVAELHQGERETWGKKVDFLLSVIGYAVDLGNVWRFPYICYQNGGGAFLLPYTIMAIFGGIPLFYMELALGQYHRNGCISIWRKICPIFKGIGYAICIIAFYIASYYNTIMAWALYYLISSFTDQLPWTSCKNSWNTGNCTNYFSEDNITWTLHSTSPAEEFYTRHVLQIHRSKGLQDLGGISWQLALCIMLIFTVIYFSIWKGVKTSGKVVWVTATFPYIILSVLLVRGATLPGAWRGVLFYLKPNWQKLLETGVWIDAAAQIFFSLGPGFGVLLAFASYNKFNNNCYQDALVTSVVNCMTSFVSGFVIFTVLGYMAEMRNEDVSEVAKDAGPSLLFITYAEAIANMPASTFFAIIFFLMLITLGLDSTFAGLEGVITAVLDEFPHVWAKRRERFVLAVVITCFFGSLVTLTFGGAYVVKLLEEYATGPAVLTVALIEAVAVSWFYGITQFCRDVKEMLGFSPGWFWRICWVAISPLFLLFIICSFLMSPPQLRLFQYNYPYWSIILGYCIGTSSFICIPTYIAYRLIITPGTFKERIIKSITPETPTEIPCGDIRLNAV
Chain of Sodium-dependent dopamine transporter (Homo sapiens) (Q01959 whole entry): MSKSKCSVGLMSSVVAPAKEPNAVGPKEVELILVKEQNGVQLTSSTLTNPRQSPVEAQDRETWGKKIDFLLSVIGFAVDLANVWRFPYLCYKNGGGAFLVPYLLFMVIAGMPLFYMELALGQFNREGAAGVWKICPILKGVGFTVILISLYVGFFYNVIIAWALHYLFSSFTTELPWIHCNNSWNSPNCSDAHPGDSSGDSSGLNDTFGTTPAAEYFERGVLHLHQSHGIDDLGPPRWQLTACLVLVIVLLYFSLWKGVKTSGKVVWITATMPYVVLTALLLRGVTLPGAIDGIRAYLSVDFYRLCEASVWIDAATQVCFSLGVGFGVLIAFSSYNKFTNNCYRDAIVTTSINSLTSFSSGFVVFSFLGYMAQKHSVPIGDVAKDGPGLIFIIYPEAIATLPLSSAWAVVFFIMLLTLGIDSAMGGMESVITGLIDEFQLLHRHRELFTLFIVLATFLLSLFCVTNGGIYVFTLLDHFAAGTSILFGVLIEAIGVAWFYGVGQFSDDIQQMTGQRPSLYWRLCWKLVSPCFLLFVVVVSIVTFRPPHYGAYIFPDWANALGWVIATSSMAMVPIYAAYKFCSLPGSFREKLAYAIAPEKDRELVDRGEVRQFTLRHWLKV

IC50 [2] [nM]	inhibition [5] [%]	IC50 [11] [nM]	SMILES	inhibition [4] [%]	IC5 [21] [µM]	also measured
91.9	–	–	CNC[C@@H](O)[C@H](c1cccc(F)c1)n1c(=O)n(-c2ccccc2)c2cccc(F)c21	–	–	inhibition [1]: 11%
–	–	–	CCOc1ccccc1O[C@@H](c1ccccc1)[C@@H]1CNCCO1	–	–	IC5 [3]: > 10000 nM
36.7	32	–	CCn1c(=O)n([C@@H](c2ccccc2)[C@H](O)CNC)c2cc(F)ccc21	30	–	–
18.6	15	–	CCCn1c(=O)n([C@@H](c2ccccc2)[C@H](O)CNC)c2ccccc21	6	–	–
17.5	4	16.8	CCn1c(=O)n([C@@H](c2ccccc2)[C@H](O)CNC)c2ccccc21	–	–	bioavailability [6]: 56%; Activity [7]: 1.82 °C; Activity [8]: 1.57 °C; AUC(0-inf) [9]: 1840 ng·h/mL; Tmax [10]: 1.1 h; clearance [12]: 54 mL/min/kg; half-life [13]: 3.4 h; Cmax [14]: 306 ng/mL; Time [15]: 3.5 h; AUC(0-inf) [16]: 1640 ng·h/mL; half-life [17]: 3.6 h
> 1000	–	–	CCNC[C@@H](O)[C@H](c1ccccc1)n1c(=O)n(C(C)C)c2ccc(F)cc21	–	–	–
56	1	–	CNC[C@@H](O)[C@H](c1ccccc1)n1c(=O)n(C(C)(C)C)c2ccccc21	–	–	inhibition [1]: 3%
13.8	-5	11.4	CCn1c(=O)n([C@@H](c2ccccc2)[C@H](O)CNC)c2c(F)cccc21	29	–	–
42.5	5	90	CNC[C@@H](O)[C@H](c1ccccc1)n1c(=O)n(C2CCC2)c2ccccc21	6	–	–
257	15	–	CNC[C@@H](O)[C@H](c1ccccc1)n1c(=O)n(C)c2ccccc21	14	–	–
13.4	19	10.8	CNC[C@@H](O)[C@H](c1ccccc1)n1c(=O)n(C(C)C)c2ccccc21	19	–	–
–	–	–	CNC[C@@H](O)[C@H](c1ccccc1)n1ccc2ccccc21	–	0.358	IC5 [3]: 358 nM
–	–	–	CNCC[C@@H](Oc1ccccc1C)c1ccccc1	–	–	IC5 [3]: 48 nM

SMILES	IC50 [2] [nM]	inhibition [5] [%]	IC50 [11] [nM]	inhibition [4] [%]	IC5 [21] [µM]	also measured
CCn1c(=O)n([C@@H](c2cccc(F)c2)[C@H](O)CNC)c2c(F)cccc21	10.4	8	4.1	11	> 10	Selectivity ratio [18]: > 900; Selectivity ratio [19]: > 500; Selectivity ratio [20]: > 500
CNC[C@@H](O)[C@H](c1cccc(F)c1)n1c(=O)n(C(C)C)c2cccc(F)c21	6.9	19	4.1	27	6.32	bioavailability [6]: 97%; Activity [7]: 3.73 °C; Selectivity ratio [18]: > 900; Activity [8]: 2.44 °C; IC5 [3]: 6320 nM; Selectivity ratio [19]: > 500; AUC(0-inf) [9]: 7080 ng·h/mL; Selectivity ratio [20]: > 500; Tmax [10]: 0.5 h; clearance [12]: 24 mL/min/kg; half-life [13]: 3.9 h; Cmax [14]: 1120 ng/mL; Time [15]: 6 h; AUC(0-inf) [16]: 3650 ng·h/mL; half-life [17]: 2.3 h
CNC[C@@H](O)[C@H](c1ccccc1)n1c(=O)n(C(C)C)c2cccc(F)c21	7.8	6	–	12	> 10	Activity [7]: 2.09 °C; Selectivity ratio [18]: > 900; Activity [8]: 1.61 °C; Selectivity ratio [19]: > 500; Selectivity ratio [20]: > 500; Time [15]: 1 h
CCCn1c(=O)n([C@@H](c2ccccc2)[C@H](O)CNC)c2cc(F)ccc21	39.4	44	–	16	8.32	–
CNC[C@@H](O)[C@H](c1ccccc1)n1c(=O)n(C2CCCC2)c2ccccc21	66.7	46	–	20	2.37	–
CCn1c(=O)n([C@@H](c2cccc(F)c2)[C@H](O)CNC)c2ccccc21	7.4	15	6.4	-2	> 10	Activity [22]: Active; Activity [7]: 2.62 °C; Selectivity ratio [18]: > 900; Activity [8]: 2.03 °C; Activity [23]: Active; Selectivity ratio [19]: > 500; Activity [24]: Active; Selectivity ratio [20]: > 500; Time [15]: 5 h; Activity [25]: Dose-dependent effect
